This passage reports IC50 results from patent publication US10278942B2 (PELOTON THERAPEUTICS, INC., priority 2015, dated 2019).

T1 sequence (Q99814 240-350 limits assumed): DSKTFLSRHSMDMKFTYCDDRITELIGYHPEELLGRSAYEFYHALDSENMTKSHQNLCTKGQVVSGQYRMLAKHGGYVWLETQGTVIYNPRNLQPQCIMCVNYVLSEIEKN

The first test concerns the target T1, HIF-2α HIS TAG-PASB Domain (Homo sapiens, UniProt Q99814).
T1 construct: 100 nM HIF-2α HIS TAG-PASB Domain
Kind of test: HIF-2α Scintillation Proximity Assay (SPA). Format: binding. The settings on record: Scintillation Proximity Assay IC50 (nM). Summed up:
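IC50 values rest on percent inhibition, where the sample signal is scaled between high and low controls. Wells contain about 100 μL: compound dispensed as 2 μL of DMSO solution, 88 μL protein-probe mix and 10 μL of beads.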
In general terms: In a scintillation proximity assay essentially only radioactivity close to the scintillant gives light.
For `N#Cc1c(Oc2cc(F)cc(Cl)c2)ccc2c1C(O)C(F)(F)S2(=O)=O` (stereo not shown) [Compound 356], the IC50 – broadly, the concentration needed to halve the response being measured – was less than 50 nM.

In turn, `O=Cc1cc(S(=O)(=O)C(F)(F)F)ccc1Oc1cc(F)cc(Cl)c1` [Compound 123] returned an IC50 of less than 50 nM.

Regarding `O=S1(=O)c2ccc(Oc3cc(F)cc(Cl)c3)c(C(F)F)c2C(O)C1(F)F` (stereo not shown) [Compound 364], the IC50 is less than 50 nM.

For `N#Cc1cc(S(=O)(=O)C(F)(F)F)ccc1Oc1cc(F)cc(Cl)c1` [Compound 119], the IC50 lay within 50 to 249 nM.

Staying with this test, now noted: read-out: Scintillation Proximity Assay IC50.
Consider `CS(=O)(=O)c1ccc(N2CCC[C@@H](O)C2)c2c1[C@H](O)C(F)(F)[C@@H]2F` [Compound 553], for which the IC50 was more than 1000 nM.

Turning to `CS(=O)(=O)c1ccc(Oc2cncc(Br)c2)c2c1[C@H](O)[C@H](F)C2` [Compound 326], the IC50 was more than 1000 nM.

On to `C=CCN=S(=O)(c1ccc(Oc2cc(F)cc(C#N)c2)c2c1[C@H](O)C(F)(F)C2)C(F)(F)F` (stereo partly shown) [Compound 308], for which the IC50 lay within 50 to 249 nM.

`O=S(=O)(c1ccc(Oc2cc(F)cc(Cl)c2)c(Br)c1CNCCO)C(F)(F)F` [Compound 108]: the IC50 is more than 1000 nM.

With `O=S(=O)(c1ccc(NC2CCOCC2)c2c1[C@H](O)CC2)C(F)F` [Compound 494, (1R)-7-(difluoromethylsulfonyl)-4-(tetrahydropyran-4-ylamino)indan-1-ol], the IC50 is more than 1000 nM.

For `O=S(=O)(c1ccc(-c2cn[nH]c2)c2c1[C@H](O)C(F)(F)C2)C(F)(F)F` [Compound 560], the IC50 was more than 1000 nM.

On to `N#Cc1c(Oc2cc(F)cc(Cl)c2)ccc(S(=O)(=O)C(F)(F)F)c1Cl` [Compound 28], for which the IC50 is more than 1000 nM.

As for `CC1(Oc2ccc(S(=O)(=O)C(F)(F)F)c3c2CC(F)(F)[C@H]3O)COC1` [Compound 785], the IC50 is more than 1000 nM.

Regarding `O=C1c2c(C(F)(F)F)ccc(OCC(F)F)c2CC1(F)F` [Compound 695], the IC50 is more than 1000 nM.

With `CN1CCC(Oc2ccc(S(=O)(=O)C(F)(F)F)c3c2CC(F)(F)C3O)C1` (stereo not shown) [Compound 642], the IC50 is more than 1000 nM.

Regarding `O=S(=O)(c1ccc(O[C@@H]2CCCc3cn[nH]c32)c2c1[C@H](O)C(F)(F)C2)C(F)(F)F` [Compound 729], the IC50 is more than 1000 nM.

As for `CS(=O)(=O)c1ccc(Oc2cncc(C#N)c2)c2c1[C@H](O)[C@H](F)[C@@H]2F` [Compound 333], the IC50 fell in the range of 50 to 249 nM.

Regarding `CS(=O)(=O)c1ccc(Oc2cc(F)cc(C#N)c2)c2c1[C@H](O)C(F)(F)[C@H]2O` [Compound 311], the IC50 was more than 1000 nM.

Consider `N#Cc1cc(F)cc(Oc2ccc(S(=O)(=O)C3CCC3)c3c2CCC3O)c1` (stereo not shown) [Compound 208], for which the IC50 is more than 1000 nM.

Consider `N#Cc1cc(F)cc(Oc2ccc(S(=N)(=O)C(F)(F)F)c3c2CCC3O)c1` (stereo not shown) [Compound 259], for which the IC50 is more than 1000 nM.

Take `N#Cc1cc(Oc2ccc(S(=O)(=O)C(F)(F)F)c3c2CCC3O)ccc1F` (stereo not shown) [Compound 216]: the IC50 was more than 1000 nM.

Turning to `O=S(=O)(c1ccc(OC2CCOC2)c2c1C(O)CC2)C(F)(F)F` (stereo not shown) [Compound 596], the 50% inhibitory concentration (IC50) was more than 1000 nM.

Take `CS(=O)(=NC#N)c1ccc(Oc2cc(F)cc(F)c2)c2c1C(O)CC2` (stereo not shown) [Compound 189]: the IC50 is more than 1000 nM.

On to `Cc1c(Cl)cccc1Oc1ccc(S(=O)(=O)C(F)(F)F)cc1Br` [Compound 171], for which the IC50 is more than 1000 nM.

With `O=S(=O)(c1ccc(-c2ccc3cn[nH]c3c2)c2c1[C@H](O)C(F)(F)C2)C(F)(F)F` [Compound 568], the IC50 was more than 1000 nM.

Regarding `N#Cc1cc(F)cc(Oc2ccc3c(c2C(F)F)[C@H](N)C(F)(F)S3(=O)=O)c1` [Compound 384], the IC50 is more than 1000 nM.

Regarding `CS(=O)(=O)c1ccc(Oc2cc(F)cc(C#N)c2)c2c1C(O)C1(CC1)C2` (stereo not shown) [Compound 217], the IC50 is more than 1000 nM.

In the case of `NC(=O)Cc1ccc(S(=O)(=O)C(F)(F)F)c2c1CC[C@H]2O` [Compound 525], the IC50 is more than 1000 nM.

Turning to `CS(=O)(=O)N1CC(Oc2ccc(S(=O)(=O)C(F)(F)F)c3c2CC(F)(F)[C@H]3O)C1` [Compound 793], the IC50 is more than 1000 nM.

Turning to `CS(=O)(=O)c1ccc(Oc2cncc(F)c2)c2c1[C@H](O)C(F)(F)[C@@H]2F` [Compound 329], the IC50 is less than 50 nM.

As to `O=S(=O)(c1ccc(C2CC2)c2c1C(O)CC2)C(F)(F)F` (stereo not shown) [Compound 512], the IC50 was more than 1000 nM.

Turning to `N=S(=O)(c1ccc(Oc2cc(F)cc(Cl)c2)c(Br)c1)C(F)F` (stereo not shown) [Compound 69], the IC50 was more than 1000 nM.

Regarding `O/N=C1/c2c(C(F)(F)F)ccc(OCCCF)c2CC1(F)F` [Compound 702], the IC50 is more than 1000 nM.

As to `O=S(=O)(c1ccc(Cn2nccn2)c2c1[C@H](O)C(F)(F)C2)C(F)(F)F` [Compound 535], the IC50 is more than 1000 nM.

As for `CS(=N)(=O)c1ccc(Oc2cc(F)cc(Cl)c2)c(C#N)c1Cl` (stereo not shown) [Compound 180], the IC50 is more than 1000 nM.

For the compound `CC1(O)c2c(ccc(OCc3ccccc3)c2C#N)S(=O)(=O)C1(F)F` (stereo not shown) [Compound 459], the IC50 was more than 1000 nM.

On to `CS(=O)(=O)CCCOc1ccc(S(=O)(=O)C(F)(F)F)c2c1CC(F)(F)C2O` (stereo not shown) [Compound 631], for which the IC50 was more than 1000 nM.

As to `Nc1ncccc1-c1ccc(S(=O)(=O)C(F)(F)F)c2c1CC(F)(F)[C@H]2O` [Compound 539], the IC50 was more than 1000 nM.

As for `N#Cc1ccc(OCC(F)F)c2c1[C@H](O)C(F)(F)C2` [Compound 688], the half-maximal inhibitory concentration (IC50) is more than 1000 nM.

In the case of `NCCOc1ccc(S(=O)(=O)C(F)(F)F)c2c1CC(F)(F)C2O` (stereo not shown) [Compound 635], the IC50 was more than 1000 nM.

As for `N#Cc1c(I)ccc(Oc2cc(F)cc(Cl)c2)c1Br` [Compound 96], the IC50 was more than 1000 nM.

Take `N#Cc1c(Oc2cc(F)cc(Cl)c2)ccc2c1[C@H](O)CS2(=O)=O` [Compound 407]: the IC50 was more than 1000 nM.

On to `NC(=O)Cc1ccc(S(=O)(=O)C(F)(F)F)c2c1CC(F)(F)C2O` (stereo not shown) [Compound 526], for which the IC50 was more than 1000 nM.

On to `CNCc1c(S(=O)(=O)C(F)(F)F)ccc(Oc2cc(F)cc(Cl)c2)c1Cl` [Compound 113], for which the IC50 is more than 1000 nM.

Consider `COc1ccc(I)c2c1CC(F)(F)C2O` (stereo not shown) [Compound 679], for which the IC50 is more than 1000 nM.

Turning to `O=C1CS(=O)(=O)c2ccc(Oc3cc(F)cc(F)c3)cc21` [Compound 417], the IC50 is more than 1000 nM.

Regarding `CCOc1ccc(C(F)(F)F)c2c1CC[C@H]2O` [Compound 673], the IC50 is more than 1000 nM.

For `CC(=O)c1c(S(=O)(=O)C(F)(F)F)ccc(Oc2cc(F)cc(C#N)c2)c1C#N` [Compound 79], the IC50 was more than 1000 nM.

As for `CS(=O)(=O)c1ccc(Oc2cc(F)cc(C#N)c2)c2c1[C@H](N)C(F)(F)[C@@H]2F` [Compound 346], the IC50 was 250 to 1000 nM.

For `COC(C)COc1ccc(S(=O)(=O)C(F)(F)F)c2c1CCC2O` (stereo not shown) [Compound 625], the IC50 is more than 1000 nM.

In the case of `Cc1cc(C#N)cc(Oc2ccc3c(c2C(F)F)C(=O)C(F)(F)S3(=O)=O)c1` [Compound 391], the IC50 is more than 1000 nM.

With `COC1Cc2c(OCC(F)F)ccc(C(F)(F)F)c2C1O` (stereo not shown) [Compound 668], the IC50 was more than 1000 nM.

For the compound `CS(=O)(=O)c1ccc(Oc2cncc(Br)c2)c2c1C(=O)C(F)(F)C2` [Compound 323], the IC50 is more than 1000 nM.

Turning to `CN(C)Cc1c(S(=O)(=O)C(F)F)ccc(Oc2cc(F)cc(Cl)c2)c1C#N` [Compound 36], the IC50 was more than 1000 nM.

For `O=C1CC[C@@H](Oc2ccc(S(=O)(=O)C(F)(F)F)c3c2CC(F)(F)[C@H]3O)CN1` [Compound 720], the IC50 was more than 1000 nM.

`CS(=O)(=O)c1cc(F)c(Oc2cc(F)cc(C#N)c2)c2c1C(O)C(F)(F)C2` (stereo not shown) [Compound 219]: the IC50 was more than 1000 nM.

On to `N#Cc1c(Oc2cc(F)cc(Cl)c2)ccc2c1C(O)CS2(=O)=O` (stereo not shown) [Compound 353], for which the IC50 is 50 to 249 nM.

As to `Fc1cc(F)cc(Oc2ncc(Br)c3c2CCC3)c1` [Compound 469, 4-bromo-1-(3,5-difluorophenoxy)-6,7-dihydro-5H-cyclopenta[c]pyridine], the IC50 is more than 1000 nM.

In the case of `CC(=O)N1CCCC(Oc2ccc(S(=O)(=O)C(F)(F)F)c3c2CC(F)(F)C3O)C1` (stereo not shown) [Compound 627], the IC50 was more than 1000 nM.

Take `CS(=O)(=O)N1CCC(Oc2ccc(S(=O)(=O)C(F)(F)F)c3c2CC(F)(F)C3O)C1` (stereo not shown) [Compound 630]: the IC50 was more than 1000 nM.

Take `CS(=O)(=O)c1ccc(Oc2cc(F)cc(C#N)c2)c2c1[C@H](O)CC2(F)F` [Compound 288]: the IC50 is more than 1000 nM.

For `Cc1c(Oc2cc(F)cc(C#N)c2)ccc(S(=O)(=O)C(F)(F)F)c1/C=C/C(=O)NCc1ccccc1` [Compound 149], the IC50 was more than 1000 nM.

In the case of `O=S(=O)(c1ccc(NCc2cccs2)c2c1[C@H](O)C(F)(F)C2)C(F)F` [Compound 528], the IC50 is more than 1000 nM.

`OC1c2c(-c3cn[nH]c3)ccc(OCC(F)F)c2CC1(F)F` (stereo not shown) [Compound 684]: the IC50 was more than 1000 nM.

For `NC1CCc2c(Oc3cc(F)cc(F)c3)ccc(S(=O)(=O)C(F)F)c21` (stereo not shown) [Compound 19], the IC50 was more than 1000 nM.

With `O=C1c2c(C(F)(F)F)ccc(OCC(F)F)c2CC1F` (stereo not shown) [Compound 694], the IC50 was more than 1000 nM.

On to `O=S(=O)(CF)c1ccc(Oc2cccc3sccc23)c2c1C(O)CC2` (stereo not shown) [Compound 239], for which the IC50 was more than 1000 nM.

For the compound `O=S(=O)(c1ccc(Oc2cc(F)cc(Cl)c2)c(Cl)c1Cn1ccnc1)C(F)F` [Compound 45], the IC50 is more than 1000 nM.

Regarding `CC(C)Oc1ccc(S(=O)(=O)C(F)(F)F)c2c1CCC2O` (stereo not shown) [Compound 592], the IC50 is more than 1000 nM.

With `CS(=O)(=O)c1ccc(Nc2cc(F)cc(C#N)c2)c2c1C(O)CC2` (stereo not shown) [Compound 498], the IC50 is more than 1000 nM.

Consider `O[C@H]1c2c(C(F)(F)F)ncc(O[C@H]3C[C@H](F)C3)c2C[C@H]1F` [Compound 478], for which the IC50 is less than 50 nM.

In the case of `CS(=O)(=O)c1ccc(Oc2cc(F)cc(C#N)c2)c2c1C(O)CCC2` (stereo not shown) [Compound 95], the IC50 is more than 1000 nM.

Regarding `CS(=O)(=NC#N)c1ccc(Oc2cc(F)cc(C#N)c2)c2c1C(O)CC2` (stereo not shown) [Compound 68], the IC50 is more than 1000 nM.

As to `O=S(=O)(c1ccc(Oc2cc(F)cc(Cl)c2)c2c1COC2O)C(F)F` (stereo not shown) [Compound 88], the IC50 was more than 1000 nM.
